Results published in patent US20200345746A1, “Oxazine Derivative for Use in the Prevention of Alzheimer's Disease in at Risk Patents” (Novartis AG, priority 2016, published 2020).

Legend:
Aβ40 = assay: Acute PK/PD in APOE4-TR mice: Aβ40 in brain; assay type: in vivo, mouse; details: for Average Aβ40 brain ± SD: n = 6; for Aβ40 reduction vs vehicle, range over the doses: APOE4-TR mice, 3, 10 and 30 μmol/kg
Method: Compound 1 was formulated as a suspension. Vehicle or compound was given by oral administration in a volume of 10 ml/kg once. Vehicle: 0.1% Tween80 in 0.5% Methylcellulose in water.
(§1) Frozen mouse forebrains were weighed and homogenized in 9 volumes (w/v) of ice-cold TBS-Complete (20 mM Tris-HCl pH 7.4, 137 mM NaCl, 1× Complete [Protease Inhibitor Cocktail Tablets: 1 836 145, Roche Diagnostics GmbH, Penzberg, Germany]) by sonication (90% duty cycle, output control 5, 40-55 pulses, [Sonifier 450, Branson]). After homogenization several 50 μl aliquots were prepared for analysis and were stored at −80° C.
Endogenous Aβ40 in mice was determined with the Meso Scale Discovery (MSD) 96-well MULTI-ARRAY human/rodent (4G8) Aβ40 Ultrasensitive Assay (#K110FTE-3, Meso Scale Discovery, Gaithersburg, USA). The assay was performed according to the manufacturer's instructions except for the calibration curve and the sample preparations. TritonX-100 (TX-100) soluble Aβ40 was extracted from forebrain with 1% TX-100 using a 50 μl aliquot of each 1:10 forebrain homogenate, mixed with 50 μl 2% TX-100 in TBS complete (20 mM Tris-HCl pH 7.4, 137 mM NaCl, 1× Complete [Protease Inhibitor Cocktail Tablets: 1 836 145, Roche Diagnostics GmbH, Penzberg Germany]) to reach a final concentration of 1% TX-100 and a 1:20 forebrain dilution. The samples were incubated for 15 min on ice and vortexed every 5 min. The samples were ultra-centrifuged (100000×g, 4° C., 15 min) and 50 μl of the clear supernatants were transferred to fresh tubes. For the Aβ40 assay the supernatants were further diluted 1:5 in 3% Blocker A solution (from kit) to a final forebrain dilution of 1:100 and applied to the plate.
The calibration curve was prepared in a corresponding dilution of 1% Blocker A solution spiked with synthetic Aβ1-40 peptide (1.56-100 pg/ml) except for non-transgenic mouse brain samples: In this case, the calibration curve was prepared in a correspondingly diluted APP knockout mouse forebrain spiked with synthetic Aβ1-40 peptide (1.56-100 pg/ml). For all samples and standards 25 μl were applied per well. For each determination duplicate wells were done. The mean values from the duplicate wells were used for calculations.

Aβ42 = assay: Formic acid soluble Aβ42 in APP23 mouse forebrain; assay type: in vivo
Method: as §1
Fifty microliter of forebrain homogenate was mixed with 116.6 μl 100% formic acid, resulting in a final formic acid concentration of 70%. Samples were stored on ice and vortexed every 5 minutes. For neutralization, 50 μl of the mixture were pipetted into a new tube, and 950 μl of 1 M Tris base, containing 1× Complete Protease inhibitor, was added. Tubes were stored at room temperature overnight and then centrifuged for 15 minutes at 14000 rpm in an Eppendorf Microzentrifuge at 4° C. From the top layer, 100 μl are removed and mixed with 100 μl of 3% Blocker A solution (part of the MesoScale assay kit). This sample was either directly applied to the assay plate (dilution 1:1332) or further diluted in 1% Blocker A solution.

IBA1 positive microglia = IBA1 positive microglia in APP23 mice; assay type: in vivo, mouse; details: for Distal IBA1+ area / Non-plaque-associated IBA1+ area* / Plaque-associated IBA1+ area / Proximal IBA1+ area / Total IBA1+ area: normalized by total area, mean + SEM
Method: Amyloid plaques were stained using the same antibody and the microglia cells were detected using a rabbit anti-IBA1 antibody (reference 019-19741) from Wako Chemicals GmbH (Neuss, Germany) and diluted at 1/200 in antibody diluent. The staining protocol was exactly similar to the protocol for amyloid-beta plaques and astrocytes. The slides were scanned with the same settings.
For the beta-amyloid plaque and neuroinflammation analysis, the following sequence of steps was performed: • Slides were scanned with Hamamatsu Nanozoomer at 40× magnification. For each fluorescence labelling (DAPI, FITC and TRITC), a separate image was created • Manually outline ROIs (regions of interest) for defining cortex in brain sections for Aβ plaque assessment on the green FITC channel image, then use the resulting outline also for the other two channel images (copy resulting xml files) • Run the in-house developed ImageScope (V12.1.0.5029, Aperio Inc., USA) plug-in for creation and export of *.tif image tiles (at 10× magnification) for each of the 3 fluorescence channels
Image Batch Processing: • Obtain the combined true color image (DAPI, FITC, TRITC) for each section through accessing each individual fluorescence channel image • Segmentation of valid sample (within outlined ROI) from black unstained background • Apply adaptive thresholding technique for segmentation of objects in green channel image
(FITC-labeled Aβ plaques) • Separation of touching objects for correct subsequent individual object analysis after elimination of too small debris showing signal in the green (FITC) channel • Segmentation of TRITC-labeled objects in red channel (specific for GFAP or Iba1 staining indicating astrocytes or microglia) through morphological tophat transformation and thresholding • Feature based object classification
Computation of several morphometric and densitometric features for valid plaques • Number of plaques • “Specific optical density” which has been described to reflect the amount of protein (antigen) concentration, based on measuring and using the staining intensity of an appropriate antibody in a non-linear way (Rahier et al., 1989; Ruifrok et al., 2001) • assessment of “plaque-associated GFAP or Iba1” based on the ratio of TRITC+ signal vs plaque area, “proximal GFAP or Iba1” based on ratio of TRITC+ signal within dilation ring around plaque

[1] = APOE4-TR mice, 30 μmol/kg acute

C[C@@]1(c2nc(NC(=O)c3ncc(C(F)(F)F)cc3Cl)ccc2F)CO[C@@](C)(C(F)(F)F)C(N)=N1 [Compound 1, N-(6-((3R,6R)-5-amino-3,6-dimethyl-6-(trifluoromethyl)-3,6-dihydro-2H-1,4-oxazin-3-yl)-5-fluoropyridin-2-yl)-3-chloro-5-(trifluoromethyl)picolinamide]
Mini AUEC (brain Aβ40) (Aβ40; APOE4-TR mice, 3 μmol/kg acute): 32%
Average Aβ40 brain ± SD (Aβ40; APOE4-TR mice, 3 μmol/kg acute p.o., 4 h): 0.114 ± 0.024 pmol/g
Average Aβ40 brain ± SD (Aβ40; APOE4-TR mice, 3 μmol/kg acute p.o., 24 h): 0.160 ± 0.033 pmol/g
% reduction vs vehicle (brain Aβ40) (Aβ40; APOE4-TR mice, 3 μmol/kg acute, 4 h): 43%
% reduction vs vehicle (brain Aβ40) (Aβ40; APOE4-TR mice, 3 μmol/kg acute, 24 h): 20%
Mini AUEC (brain Aβ40) (Aβ40; APOE4-TR mice, 10 μmol/kg acute): 47%
Average Aβ40 brain ± SD (Aβ40; APOE4-TR mice, 10 μmol/kg acute p.o., 4 h): 0.074 ± 0.014 pmol/g
Average Aβ40 brain ± SD (Aβ40; APOE4-TR mice, 10 μmol/kg acute p.o., 24 h): 0.139 ± 0.041 pmol/g
% reduction vs vehicle (brain Aβ40) (Aβ40; APOE4-TR mice, 10 μmol/kg acute, 4 h): 63%
% reduction vs vehicle (brain Aβ40) (Aβ40; APOE4-TR mice, 10 μmol/kg acute, 24 h): 31%
Mini AUEC (brain Aβ40) (Aβ40; [1]): 72%
maximal effect on Aβ reduction in the brain (Aβ40; [1]): > 70%
Average Aβ40 brain ± SD (Aβ40; APOE4-TR mice, 30 μmol/kg acute p.o., 4 h): 0.046 ± 0.006 pmol/g
Average Aβ40 brain ± SD (Aβ40; APOE4-TR mice, 30 μmol/kg acute p.o., 24 h): 0.068 ± 0.021 pmol/g
% reduction vs vehicle (brain Aβ40) (Aβ40; APOE4-TR mice, 30 μmol/kg acute, 4 h): 77%
% reduction vs vehicle (brain Aβ40) (Aβ40; APOE4-TR mice, 30 μmol/kg acute, 24 h): 66%
Aβ40 reduction vs vehicle, range over the doses (Aβ40; 4h): 43-77%
Aβ40 reduction vs vehicle, range over the doses (Aβ40; 24h): 20-66%
Formic acid soluble Aβ42 change vs vehicle (Aβ42; APP23, 0.03 g/kg vs vehicle): −16.3%
Formic acid soluble Aβ42 change vs vehicle (Aβ42; APP23, 0.3 g/kg vs vehicle): −86.2%
Distal IBA1+ area (IBA1 positive microglia; APP23, 0.03 g/kg food): 2.74 ± 0.42
Non-plaque-associated IBA1+ area* (IBA1 positive microglia; APP23, 0.03 g/kg food): 3.98 ± 0.54
Plaque-associated IBA1+ area (IBA1 positive microglia; APP23, 0.03 g/kg food): 1.79 ± 0.51
Proximal IBA1+ area (IBA1 positive microglia; APP23, 0.03 g/kg food): 1.23 ± 0.22
Total IBA1+ area (IBA1 positive microglia; APP23, 0.03 g/kg food): 5.76 ± 0.83
Distal IBA1+ area, change vs vehicle (IBA1 positive microglia; APP23, 0.03 g/kg vs vehicle): −28.9%
Non-plaque-associated IBA1+ area*, change vs vehicle (IBA1 positive microglia; APP23, 0.03 g/kg vs vehicle): −39.2%
Plaque-associated IBA1+ area, change vs vehicle (IBA1 positive microglia; APP23, 0.03 g/kg vs vehicle): −40.5%
Proximal IBA1+ area, change vs vehicle (IBA1 positive microglia; APP23, 0.03 g/kg vs vehicle): −47.4%
Total IBA1+ area, change vs vehicle (IBA1 positive microglia; APP23, 0.03 g/kg vs vehicle): −37.4%
Distal IBA1+ area (IBA1 positive microglia; APP23, 0.3 g/kg food): 5.05 ± 0.98
Non-plaque-associated IBA1+ area* (IBA1 positive microglia; APP23, 0.3 g/kg food): 5.70 ± 1.00
Plaque-associated IBA1+ area (IBA1 positive microglia; APP23, 0.3 g/kg food): 0.88 ± 0.19
Proximal IBA1+ area (IBA1 positive microglia; APP23, 0.3 g/kg food): 0.65 ± 0.05
Total IBA1+ area (IBA1 positive microglia; APP23, 0.3 g/kg food): 6.31 ± 0.92
Distal IBA1+ area, change vs vehicle (IBA1 positive microglia; APP23, 0.3 g/kg vs vehicle): +30.7%
Non-plaque-associated IBA1+ area*, change vs vehicle (IBA1 positive microglia; APP23, 0.3 g/kg vs vehicle): −8.2%
Plaque-associated IBA1+ area, change vs vehicle (IBA1 positive microglia; APP23, 0.3 g/kg vs vehicle): −70.6%
Proximal IBA1+ area, change vs vehicle (IBA1 positive microglia; APP23, 0.3 g/kg vs vehicle): −72.2%
Total IBA1+ area, change vs vehicle (IBA1 positive microglia; APP23, 0.3 g/kg vs vehicle): −28.5%
